From patent US20240174723A1, “STAPLED ANTIMICROBIAL PEPTIDES (STAMPS) AND USES THEREOF” (Lytica Therapeutics, Inc., priority 2021, published 2024)
In brackets after ≈: the same amount, converted by molar mass. Positions of bridges follow the written chain, without caps; N, C: chain ends. Non-standard residues stand in square brackets, D forms with d. Residues, ends and D or L forms follow the SMILES beside them. Phe(4-CF3) = N[C@@H](Cc1ccc(C(F)(F)F)cc1)C(=O)O; PEG5 = NCCOCCOCCOCCOCCOCCC(=O)O; S5 = C=CCCC[C@](C)(N)C(=O)O; Dap = NC[C@H](N)C(=O)O

What was measured:
[1] = tested on: S. aureus; format: cell-based, Staphylococcus aureus
Summary of the method: (§1)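 Broth microdilution adapted from CLSI in Mueller-Hinton broth or cation-adjusted MHB. Overnight 37 °C cultures were regrown 3-4 h, then added to serially diluted peptide at a final 5×10^5 CFU/ml. After 20-24 h at 37 °C, MIC was the lowest peptide concentration with no visible growth.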

[2] = in vitro; format: cell-based; conditions: human
Summary of the method: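 RPTEC or HepG2 cells plated overnight, given fresh media, then serial StAMP dilutions (from 5 mg/mL water stock) or vehicle at 37 °C. Cytotoxicity read as LDH release into media, absorbance 490 nm; renal toxicity after 90 min, liver toxicity after 48 h incubation.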

[3] = tested on: P. aeruginosa; format: cell-based, Pseudomonas aeruginosa
Summary of the method: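 Broth microdilution adapted from CLSI in MHB or cation-adjusted MHB; log-phase P. aeruginosa at 5×10^5 CFU/ml final with serially diluted stapled peptides. Incubated 20-24 h at 37 °C; MIC is the lowest concentration without visible growth.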

[4] = tested on: K. pneumoniae; format: cell-based, Klebsiella pneumoniae
Summary of the method: as §1

[5] = in vitro; format: cell-based; conditions: human, Inhibitory Concentration at 50% Cytotoxicity (IC50) Human Liver Cells (HepG2)
Summary of the method: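 HepG2 cells in EMEM with 10% FBS, allowed 4 h to attach, then exposed to serial dilutions of StAMPs (from a 5 mg/mL water stock) or vehicle. After 48 h at 37 °C, viability read by CellTiter-Glo luminescence.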

[6] = tested on: A. baumannii; format: cell-based, Acinetobacter baumannii
Summary of the method: as §1

[7] = tested on: E. coli; format: cell-based, Escherichia coli
Summary of the method: as §1

Minimum Inhibitory Concentration (MIC) S. aureus [1] | IC50 at 90 min [2] | Minimum Inhibitory Concentration (MIC) P. aeruginosa [3] | Minimum Inhibitory Concentration (MIC) K. pneumoniae [4] | Minimum Inhibitory Concentration (MIC) A. baumannii [6] | Minimum Inhibitory Concentration (MIC) E. coli [7] | SMILES | IC50 at 48 hours [5]
>64 µg/mL | 150 µg/mL (≈ 57 µM) | 8 µg/mL | 64 µg/mL | 4 µg/mL | 8 µg/mL | CC(C)[C@@H]1NC(=O)[C@@](C)(NC(=O)[C@H](C)NC(=O)[C@H](CCCCN)NC(=O)CNC(=O)[C@H](Cc2ccccc2)NC(=O)[C@H](CCCCN)NC(=O)[C@H](CCCCN)NC(=O)[C@H](CCCCN)NC(=O)[C@H](Cc2c[nH]c3ccccc23)NC(=O)[C@H](Cc2c[nH]cn2)NC(=O)[C@]2(C)CCCC=CCCC[C@](C)(NC(=O)CN)C(=O)NCC(=O)N[C@@H](CCCCN)C(=O)N[C@@H](Cc3ccccc3)C(=O)N2)CCCC=CCCC[C@@](C)(C(=O)N[C@@H](C)C(=O)N[C@@H](CCCCN)C(=O)N[C@@H](CCCCN)C(N)=O)NC(=O)[C@H](CCC(=O)O)NC(=O)CNC1=O [compound 61] (H-G[S5]GKF[S5]HWKKKFGKA[S5]VGE[S5]AKK-NH2; staple 2-6, 16-20) | > 200 µg/mL
>64 µg/mL | > 200 µg/mL | 4 µg/mL | 8 µg/mL | 2 µg/mL | 4 µg/mL | CC(C)[C@@H]1NC(=O)[C@@](C)(NC(=O)[C@H](C)NC(=O)[C@H](CCCCN)NC(=O)CNC(=O)[C@H](Cc2ccccc2)NC(=O)[C@H](CCCCN)NC(=O)[C@H](CCCCN)NC(=O)[C@H](CCCCN)NC(=O)[C@H](CCCCN)NC(=O)[C@H](CCCCN)NC(=O)[C@]2(C)CCCC=CCCC[C@](C)(NC(=O)CN)C(=O)NCC(=O)N[C@@H](CCCCN)C(=O)N[C@@H](Cc3ccccc3)C(=O)N2)CCCC=CCCC[C@@](C)(C(=O)N[C@@H](C)C(=O)N[C@@H](CCCCN)C(=O)N[C@@H](CCCCN)C(=O)NCCOCCOCCOCCOCCOCCC(N)=O)NC(=O)[C@H](CCC(=O)O)NC(=O)CNC1=O [compound 75] (H-G[S5]GKF[S5]KKKKKFGKA[S5]VGE[S5]AKK[PEG5]-NH2; staple 2-6, 16-20) | 357 µg/mL (≈ 125 µM)

Continued, compound first:

SMILES | Minimum Inhibitory Concentration (MIC) S. aureus [1] | IC50 at 90 min [2] | Minimum Inhibitory Concentration (MIC) P. aeruginosa [3] | Minimum Inhibitory Concentration (MIC) K. pneumoniae [4] | Minimum Inhibitory Concentration (MIC) A. baumannii [6] | Minimum Inhibitory Concentration (MIC) E. coli [7] | IC50 at 48 hours [5]
CC(C)[C@@H]1NC(=O)[C@@](C)(NC(=O)[C@H](C)NC(=O)[C@H](CCCCN)NC(=O)CNC(=O)[C@H](Cc2ccccc2)NC(=O)[C@H](CCCCN)NC(=O)[C@H](CCCCN)NC(=O)[C@H](CCCCN)NC(=O)[C@H](CO)NC(=O)[C@H](CCCCN)NC(=O)[C@]2(C)CCCC=CCCC[C@](C)(NC(=O)CN)C(=O)NCC(=O)N[C@@H](CCCCN)C(=O)N[C@@H](Cc3ccccc3)C(=O)N2)CCCC=CCCC[C@@](C)(C(=O)N[C@@H](C)C(=O)N[C@@H](CCCCN)C(=O)N[C@@H](CCCCN)C(N)=O)NC(=O)[C@H](CCC(=O)O)NC(=O)[C@H](Cc2ccccc2)NC1=O [compound 20] (H-G[S5]GKF[S5]KSKKKFGKA[S5]VFE[S5]AKK-NH2; staple 2-6, 16-20) | 64 µg/mL | 70 µg/mL (≈ 26.8 µM) | 2 µg/mL | 2 µg/mL | 2 µg/mL | 2 µg/mL | 105 µg/mL (≈ 40.2 µM)
CC(C)[C@@H]1NC(=O)[C@@](C)(NC(=O)[C@H](C)NC(=O)[C@H](CCCCN)NC(=O)CNC(=O)[C@H](Cc2ccccc2)NC(=O)[C@H](CCCCN)NC(=O)[C@H](CCCCN)NC(=O)[C@H](CCCCN)NC(=O)[C@H](CCCCN)NC(=O)[C@H](Cc2c[nH]cn2)NC(=O)[C@]2(C)CCCC=CCCC[C@](C)(NC(=O)CN)C(=O)NCC(=O)N[C@@H](CO)C(=O)N[C@@H](Cc3ccccc3)C(=O)N2)CCCC=CCCC[C@@](C)(C(=O)N[C@@H](C)C(=O)N[C@@H](CCCCN)C(=O)N[C@@H](CCCCN)C(N)=O)NC(=O)[C@H](CCC(=O)O)NC(=O)CNC1=O [compound 5] (H-G[S5]GSF[S5]HKKKKFGKA[S5]VGE[S5]AKK-NH2; staple 2-6, 16-20) | >64 µg/mL | > 200 µg/mL | 4 µg/mL | >64 µg/mL | 4 µg/mL | 4 µg/mL | > 200 µg/mL
CC(C)[C@@H]1NC(=O)[C@@](C)(NC(=O)[C@H](C)NC(=O)[C@H](CCCCN)NC(=O)CNC(=O)[C@H](Cc2ccccc2)NC(=O)[C@H](CCCCN)NC(=O)[C@H](CCCCN)NC(=O)[C@H](CCCCN)NC(=O)[C@H](CCCCN)NC(=O)[C@H](CCCCN)NC(=O)[C@]2(C)CCCC=CCCC[C@](C)(NC(=O)CN)C(=O)NCC(=O)N[C@@H](CCCCN)C(=O)N[C@@H](Cc3ccccc3)C(=O)N2)CCCC=CCCC[C@@](C)(C(=O)N[C@@H](C)C(=O)N[C@@H](CCCCN)C(=O)N[C@@H](CCCCN)C(=O)NCC(=O)NCC(=O)N[C@@H](CCC(=O)O)C(N)=O)NC(=O)[C@H](CCC(=O)O)NC(=O)[C@H](Cc2ccc(C(F)(F)F)cc2)NC1=O [compound 35] (H-G[S5]GKF[S5]KKKKKFGKA[S5]V[Phe(4-CF3)]E[S5]AKKGGE-NH2; staple 2-6, 16-20) | 64 µg/mL | ~200 µg/mL (≈ 67.4 µM) | 2 µg/mL | 2 µg/mL | 2 µg/mL | 2 µg/mL | > 200 µg/mL
CC(C)[C@@H]1NC(=O)[C@H](C(C)C)NC(=O)[C@@](C)(NC(=O)[C@H](C)NC(=O)[C@H](CCCCN)NC(=O)CNC(=O)[C@H](Cc2ccccc2)NC(=O)[C@H](CCCCN)NC(=O)[C@H](CCCCN)NC(=O)[C@H](CCCCN)NC(=O)[C@H](CO)NC(=O)[C@H](Cc2c[nH]cn2)NC(=O)[C@]2(C)CCCC=CCCC[C@](C)(NC(=O)CN)C(=O)NCC(=O)N[C@@H](CCCCN)C(=O)N[C@@H](Cc3ccccc3)C(=O)N2)CCCC=CCCC[C@@](C)(C(=O)N[C@@H](C)C(=O)N[C@@H](CCCCN)C(=O)N[C@@H](CCCCN)C(N)=O)NC(=O)[C@H](CCC(=O)O)NC1=O [compound 11] (H-G[S5]GKF[S5]HSKKKFGKA[S5]VVE[S5]AKK-NH2; staple 2-6, 16-20) | >64 µg/mL | 203 µg/mL (≈ 78.9 µM) | 6 µg/mL | 7 µg/mL | 2 µg/mL | 2 µg/mL | 227 µg/mL (≈ 88.2 µM)
CC(C)[C@@H]1NC(=O)[C@@](C)(NC(=O)[C@H](C)NC(=O)[C@H](CCCCN)NC(=O)CNC(=O)[C@H](Cc2ccccc2)NC(=O)[C@H](CCCCN)NC(=O)[C@H](CCCCN)NC(=O)[C@H](CCCCN)NC(=O)[C@H](CCC(N)=O)NC(=O)[C@H](Cc2c[nH]cn2)NC(=O)[C@]2(C)CCCC=CCCC[C@](C)(NC(=O)CN)C(=O)NCC(=O)N[C@@H](CCCCN)C(=O)N[C@@H](Cc3ccccc3)C(=O)N2)CCCC=CCCC[C@@](C)(C(=O)N[C@@H](C)C(=O)N[C@@H](CCCCN)C(=O)N[C@@H](CCCCN)C(N)=O)NC(=O)[C@H](CCC(=O)O)NC(=O)CNC1=O [compound 7] (H-G[S5]GKF[S5]HQKKKFGKA[S5]VGE[S5]AKK-NH2; staple 2-6, 16-20) | >64 µg/mL | > 200 µg/mL | 8 µg/mL | >64 µg/mL | 4 µg/mL | 6 µg/mL | > 200 µg/mL
CC(C)[C@@H]1NC(=O)[C@@](C)(NC(=O)[C@H](C)NC(=O)[C@H](CCCCN)NC(=O)CNC(=O)[C@H](Cc2ccccc2)NC(=O)[C@H](CCCCN)NC(=O)[C@H](CCCCN)NC(=O)[C@H](CN)NC(=O)[C@H](CCCCN)NC(=O)[C@H](CCCCN)NC(=O)[C@]2(C)CCCC=CCCC[C@](C)(NC(=O)CN)C(=O)NCC(=O)N[C@@H](CCCCN)C(=O)N[C@@H](Cc3ccccc3)C(=O)N2)CCCC=CCCC[C@@](C)(C(=O)N[C@@H](C)C(=O)N[C@@H](CCCCN)C(=O)N[C@@H](CCCCN)C(N)=O)NC(=O)[C@H](CCC(=O)O)NC(=O)CNC1=O [compound 40] (H-G[S5]GKF[S5]KK[Dap]KKFGKA[S5]VGE[S5]AKK-NH2; staple 2-6, 16-20) | >64 µg/mL | 200 µg/mL (≈ 79.3 µM) | 4 µg/mL | 8 µg/mL | 2 µg/mL | 2 µg/mL | 203 µg/mL (≈ 80.5 µM)
